Where two headings read alike, the source gives them in different places.
Tests used:
[1] = biological target: p38α activated, mitogen-activated protein kinase-activated protein kinase 2 (MAPKAP-K2 or MK2) enzyme (Homo sapiens (Human), UniProt P49137); test: MK2 Omnia continuous-read kinase assay for compound potency; assay type: biochemical
Outline: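 Activated MK2 (0.4 nM) was run with S/T3-Sox peptide and ATP, each at 10 μM (ATP at apparent KM), and Sox fluorescence was followed every 71 s for 2 h at room temperature. IC50 came from linear initial rates after no-enzyme subtraction, and apparent kinact/KI from kobs of single-exponential fits.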

MK2 [2] = biological target: T1, MK2 (Homo sapiens (Human), UniProt P49137); test: MK2 cellular assay, total and phospho-Hsp27 (Serine 78) by MSD ELISA (Thp1); assay type: cell-based
T1 sequence (P49137 whole entry): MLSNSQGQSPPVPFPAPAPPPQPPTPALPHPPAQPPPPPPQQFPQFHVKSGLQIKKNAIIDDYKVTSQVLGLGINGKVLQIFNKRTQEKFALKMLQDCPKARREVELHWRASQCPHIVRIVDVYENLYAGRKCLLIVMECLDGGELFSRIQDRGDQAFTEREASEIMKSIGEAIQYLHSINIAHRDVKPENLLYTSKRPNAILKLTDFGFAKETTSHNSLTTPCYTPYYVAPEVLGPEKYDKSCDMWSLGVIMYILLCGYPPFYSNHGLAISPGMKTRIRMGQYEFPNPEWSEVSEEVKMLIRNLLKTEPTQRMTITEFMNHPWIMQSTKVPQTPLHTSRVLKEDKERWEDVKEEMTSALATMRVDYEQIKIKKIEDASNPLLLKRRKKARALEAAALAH
Procedure: MK2 Cellular Assay—Detection of Total and Phospho-Hsp27 (Serine 78) by MSD ELISA (Thp1)
Compounds of the invention were assayed in Thp-1 human acute monocytic leukemia cells to measure inhibition of MK2 activity. Thp-1 cells were grown in culture medium containing RPMI/10% FBS (fetal bovine serum)/0.05 mM 2-mercaptoethanol. 72 hours prior to the assay, 8×10^4 cells per well were plated in a 96 well flat bottom plate along with 10 ng/mL phorbol 12-myristate 13-acetate (PMA). Cells were cultured in an incubator at 37° C. until needed for the assay. Cell plate media was replaced with culture media just prior to assay while compound dilutions were being made.
Stock solutions of test compound, 1 mM in DMSO, were prepared. 0.9 μl of test compound was added to 300 μl cell media for a starting concentration of 3000 nM. […] Cell plate media was discarded, followed by addition of 100 μl of the compound containing media. The resulting preparation was incubated at 37° C. for 1 hour.
Test compound-containing cell assay media was removed and the cells were washed once with cell assay media. Cell assay media containing 50 ng/mL LPS (lipopolysaccharide) was added to the each well and incubated for 45 minutes. Following LPS incubation, the cells were washed once with PBS (phosphate-buffered saline) and lysed with 60 μl Cell Extraction Buffer (Invitrogen #FNN0011) plus protease and phosphatase inhibitors. The plate was then stored at −80° C. until further analysis.
The MULTI-SPOT Phospho(Ser78)/Total HSP27 ELISA Assay kit was purchased from Meso Scale […] (MSD; catalog #K15128D). […] The pre-coated MSD plate was blocked with 150 μL/well of 3% BSA in MSD wash buffer. The preparation was placed on a shaker at room temperature for an hour. While the ELISA plate was blocked, the cell assay plate stored at −80° C. was placed on a shaker at 4° C. for 1 hour to thaw.
The blocked MSD plate was washed on a plate washer, tapping out the last bit of wash solution, followed by addition of 30 μl of the lysate from the cell assay plate. The preparation was covered and incubated for 1 hour at room temperature. The lysate was removed, the plate was washed 3 times on a plate washer and the last bit of wash buffer was tapped out and replaced with 25 μl/well detection antibody (anti-total HSP27 conjugated with an electrochemiluminescent compound, MSD SULFO-TAG label, supplied in kit) made in 1% BSA/MSD wash buffer. The plate was incubated for 1 hour at room temperature on a shaker, followed by 3 washes. The last bit of wash buffer was tapped out. 150 μl/well 1×MSD read buffer was added (4× read buffer supplied with kit) and the plate was analyzed on the MSD SECTOR® Imager for analysis. The SECTOR® Imager measures intensity of emitted light to provide a quantitative measure of phosphorylated HSP27 (Ser78) and total HSP27 present in the sample. The relative percent phosphoprotein in a sample is calculated by dividing the Phospho-HSP27 signal intensity over the total HSP27 signal intensity measured in each well.

MK2 [3] = biological target: T1, MK2; details: percentage of modified protein after 60 minutes at room temperature, 10-fold excess of compound; MALDI (I-1 to I-50), magnetic bead MALDI (I-51 to I-129)
[4] = [MK-2]=0.4 nM, [ATP]=10 μM, [ST3-Sox]=10 μM, read-out: MK2 IC50
[5] = Thp-1 cells, 1 hour compound, 50 ng/mL LPS 45 minutes, p-HSP27 (Ser78)/total HSP27, read-out: pHSP27 signaling EC50
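For Mass Modification in this document: covalent binding read from centroid mass shift of compound-treated versus untreated intact MK2, shift divided by compound molecular weight, giving fraction of total protein bound.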

Chain of p38α activated, mitogen-activated protein kinase-activated protein kinase 2 (MAPKAP-K2 or MK2) enzyme (P49137 whole entry): as above

| IC50 [1] [nM] | EC50 (MK2 [2]) [nM] | Structure (SMILES) | IC50 [1, 4] [nM] | EC50 (MK2 [2]; [5]) [nM] | Mass Modification (MK2 [3]) |
| --- | --- | --- | --- | --- | --- |
|  |  | C[C@@H]1CNc2c(sc3ccc4nc(Oc5cncc(Cl)n5)ccc4c23)C(=O)N1 [I-55, (R)-3-((6-chloropyrazin-2-yl)oxy)-10-methyl-9,10,11,12-tetrahydro-8H-[1,4]diazepino[5′,6′:4,5]thieno[3,2-f]quinolin-8-one] | 101 to 500 | > 1000 | G (mass modification ≦30%) |
|  |  | C[C@@H]1CNc2c(sc3ccc4nc(Oc5nc(Cl)nc(N(C)C)n5)ccc4c23)C(=O)N1 [I-75, (R)-3-((4-chloro-6-(dimethylamino)-1,3,5-triazin-2-yl)oxy)-10-methyl-9,10,11,12-tetrahydro-8H-[1,4]diazepino[5′,6′:4,5]thieno[3,2-f]quinolin-8-one] | < 100 | < 100 | E (mass modification of ≧70%) |
|  |  | COCCN(C)Cc1cnc(Cl)nc1Oc1ccc2c(ccc3sc4c(c32)NC[C@@H](C)NC4=O)n1 [I-90, (R)-3-((2-chloro-5-(((2-methoxyethyl)(methyl)amino)methyl)pyrimidin-4-yl)oxy)-10-methyl-9,10,11,12-tetrahydro-8H-[1,4]diazepino[5′,6′:4,5]thieno[3,2-f]quinolin-8-one] | 101 to 500 | < 100 | E (mass modification of ≧70%) |
|  |  | COc1nc(Cl)nc(Oc2ccc3c(ccc4sc5c(c43)NC[C@@H](C)NC5=O)n2)n1 [I-76, (R)-3-((4-chloro-6-methoxy-1,3,5-triazin-2-yl)oxy)-10-methyl-9,10,11,12-tetrahydro-8H-[1,4]diazepino[5′,6′:4,5]thieno[3,2-f]quinolin-8-one] | < 100 | > 1000 | E (mass modification of ≧70%) |
|  |  | C[C@@H]1CNc2c(sc3ccc4nc(Oc5cc(Cl)nc(CO)n5)ccc4c23)C(=O)N1 [I-68, (R)-3-((6-chloro-2-(hydroxymethyl)pyrimidin-4-yl)oxy)-10-methyl-9,10,12-tetrahydro-8H-[1,4]diazepino[5′,6′:4,5]thieno[3,2-f]quinolin-8-one] | < 100 | < 100 | E (mass modification of ≧70%) |
|  |  | C[C@@H]1CNc2c(sc3ccc4nc(Oc5nc(Cl)nc(N6CCCC6)n5)ccc4c23)C(=O)N1 [I-62, (R)-3-((4-chloro-6-(pyrrolidin-1-yl)-1,3,5-triazin-2-yl)oxy)-10-methyl-9,10,11,12-tetrahydro-8H-[1,4]diazepino[5′,6′:4,5]thieno[3,2-f]quinolin-8-one] | < 100 | 101 to 500 | E (mass modification of ≧70%) |
|  |  | CCOC(=O)c1cnc(Cl)nc1Nc1ccc2c(ccc3sc4c(c32)NC[C@@H](C)NC4=O)n1 [I-18, (R)-ethyl 2-chloro-4-((10-methyl-8-oxo-9,10,11,12-tetrahydro-8H-[1,4]diazepino[5′,6′:4,5]thieno[3,2-f]quinolin-3-yl)amino)pyrimidine-5-carboxylate] | < 100 | 101 to 500 | F (mass modification of 31-69%) |
|  |  | C[C@@H]1CNc2c(sc3ccc4nc(Oc5nc(Cl)ncc5CS(C)(=O)=O)ccc4c23)C(=O)N1 [I-112, (R)-3-((2-chloro-5-((methylsulfonyl)methyl)pyrimidin-4-yl)oxy)-10-methyl-9,10,11,12-tetrahydro-8H-[1,4]diazepino[5′,6′:4,5]thieno[3,2-f]quinolin-8-one] | < 100 | 101 to 500 | E (mass modification of ≧70%) |
|  |  | C[C@@H]1CNc2c(sc3ccc4nc(Oc5ccnc(Cl)n5)ccc4c23)C(=O)N1 [I-53, (R)-3-((2-chloropyrimidin-4-yl)oxy)-10-methyl-9,10,11,12-tetrahydro-8H-[1,4]diazepino[5′,6′:4,5]thieno[3,2-f]quinolin-8-one] | < 100 | 101 to 500 | F (mass modification of 31-69%) |
|  |  | C[C@@H]1CNc2c(sc3ccc4nc(Sc5cc(F)ncn5)ccc4c23)C(=O)N1 [I-54, (R)-3-((6-fluoropyrimidin-4-yl)thio)-10-methyl-9,10,11,12-tetrahydro-8H-[1,4]diazepino[5′,6′:4,5]thieno[3,2-f]quinolin-8-one] | < 100 | > 1000 | E (mass modification of ≧70%) |
|  |  | Cc1nc(F)cc(Oc2ccc3c(ccc4sc5c(c43)NC[C@@H](C)NC5=O)n2)n1 [I-65, (R)-3-((6-fluoro-2-methylpyrimidin-4-yl)oxy)-10-methyl-9,10,11,12-tetrahydro-8H-[1,4]diazepino[5′,6′:4,5]thieno[3,2-f]quinolin-8-one] | < 100 | 101 to 500 | E (mass modification of ≧70%) |
|  |  | C[C@@H]1CNc2c(sc3ccc4nc(Oc5nc(Cl)ncc5CN5C[C@@H](C)N[C@@H](C)C5)ccc4c23)C(=O)N1 [I-115, (R)-3-((2-chloro-5-(((3R,5S)-3,5-dimethylpiperazin-1-yl)methyl)pyrimidin-4-yl)oxy)-10-methyl-9,10,11,12-tetrahydro-8H-[1,4]diazepino[5′,6′:4,5]thieno[3,2-f]quinolin-8-one] | 101 to 500 | > 1000 | E (mass modification of ≧70%) |
| 501 to 999 | > 1000 | C[C@@H]1CNc2c(sc3ccc4nc(N(CCN(C)C)c5cc(F)ncn5)ccc4c23)C(=O)N1 [I-33, (R)-3-((2-(dimethylamino)ethyl)(6-fluoropyrimidin-4-yl)amino)-10-methyl-9,10,11,12-tetrahydro-8H-[1,4]diazepino[5′,6′:4,5]thieno[3,2-f]quinolin-8-one] |  |  | F (mass modification of 31-69%) |
|  |  | C[C@@H]1CNc2c(sc3ccc4nc(Oc5nc(Cl)ncc5C5=CCN(C)CC5)ccc4c23)C(=O)N1 [I-122] | < 100 | 101 to 500 | E (mass modification of ≧70%) |
|  |  | C[C@@H]1CNc2c(sc3ccc4nc(Nc5nc(Cl)cc(OCCN6CCN(C)CC6)n5)ccc4c23)C(=O)N1 [I-61, (R)-3-((4-chloro-6-(2-(4-methylpiperazin-1-yl)ethoxy)pyrimidin-2-yl)amino)-10-methyl-9,10,11,12-tetrahydro-8H-[1,4]diazepino[5′,6′:4,5]thieno[3,2-f]quinolin-8-one] | < 100 | > 1000 | G (mass modification ≦30%) |
|  |  | C[C@@H]1CNc2c(sc3ccc4nc(Oc5nc(Cl)ncc5COCCC#N)ccc4c23)C(=O)N1 [I-111, (R)-3-((2-chloro-4-((10-methyl-8-oxo-9,10,11,12-tetrahydro-8H-[1,4]diazepino[5′,6′:4,5]thieno[3,2-f]quinolin-3-yl)oxy)pyrimidin-5-yl)methoxy)propanenitrile] | < 100 | 101 to 500 | E (mass modification of ≧70%) |
|  |  | C[C@@H]1CNc2c(sc3ccc4nc(Oc5cc(CN(C)C(C)(C)C)nc(Cl)n5)ccc4c23)C(=O)N1 [I-118, (R)-3-((6-((tert-butyl(methyl)amino)methyl)-2-chloropyrimidin-4-yl)oxy)-10-methyl-9,10,11,12-tetrahydro-8H-[1,4]diazepino[5′,6′:4,5]thieno[3,2-f]quinolin-8-one] | 501 to 999 | 101 to 500 | E (mass modification of ≧70%) |
|  |  | C[C@@H]1CNc2c(sc3ccc4nc(Nc5cc(Cl)ncc5C(N)=O)ccc4c23)C(=O)N1 [I-15, (R)-6-chloro-4-((10-methyl-8-oxo-9,10,11,12-tetrahydro-8H-[1,4]diazepino[5′,6′:4,5]thieno[3,2-f]quinolin-3-yl)amino)nicotinamide] | < 100 | > 1000 | G (mass modification ≦30%) |

Source: US9790235B2, “MK2 inhibitors and uses thereof” (Celgene CAR LLC, priority 2014, dated 2017)
